In patent US6635651B2, “Inhibitors of thrombin induced platelet aggregation” (Parker Hughes Institute, priority 1999, dated 2003):

Tested on: thrombin induced platelet aggregation
Assay: Thrombin induced platelet aggregation (Chronolog aggregometer)
Type: cell-based
Settings: 0.1 U/ml thrombin
Protocol: Platelets treated with 100 μM WHI-P131 or the parent compound, WHI-P258 (negative control), were stimulated with 0.1 U/ml thrombin or 10 μg/ml collagen. WHI-P131 is described above, WHI-P258 is an unsubstituted quinazoline and structurally shown below.
Platelet aggregation with respect to control was monitored in a Chronolog Model 560 Dual Chamber Platelet Aggregometer. […] WHI-P258 had no effect on the thrombin response (FIG. 1C).
Platelets treated with varying concentrations of WHI-P131 or WHI-P258 (negative control) were stimulated with 0.1 U/ml thrombin. Platelet aggregation with respect to control was monitored in a Chronolog Model 560 Dual Chamber Platelet Aggregometer. […] The results are charted in FIG. 2.

SMILES	IC50 (Platelet, varying concentrations)	effect on thrombin induced platelet aggregation (100 μM)
COc1cc2ncnc(Nc3ccc(O)cc3)c2cc1OC [WHI-P131, 4-(4′-Hydroxyphenyl)-amino-6,7-dimethoxyquinazoline]	1500 nM	–
COc1cc2ncnc(Nc3ccccc3)c2cc1OC [WHI-P258, 4-(phenyl)-amino-6,7-dimethoxyquinazoline]	–	no effect
